Laboratory results: US5618812A, “Benzodiazepine derivatives” (Merck Sharp & Dohme, Ltd., priority 1992, dated 1997)
Structures can show the parent of a compound that is named as a salt. Where two headings read alike, the source gives them in different places.

What was measured:
CCK-A = molecular target: T1, CCK-A (Rattus norvegicus, UniProt P30551); assay: biochemical; assay type: binding; settings: rat pancreas (CCK-A), 125I-CCK
T1 sequence (P30551 1-444): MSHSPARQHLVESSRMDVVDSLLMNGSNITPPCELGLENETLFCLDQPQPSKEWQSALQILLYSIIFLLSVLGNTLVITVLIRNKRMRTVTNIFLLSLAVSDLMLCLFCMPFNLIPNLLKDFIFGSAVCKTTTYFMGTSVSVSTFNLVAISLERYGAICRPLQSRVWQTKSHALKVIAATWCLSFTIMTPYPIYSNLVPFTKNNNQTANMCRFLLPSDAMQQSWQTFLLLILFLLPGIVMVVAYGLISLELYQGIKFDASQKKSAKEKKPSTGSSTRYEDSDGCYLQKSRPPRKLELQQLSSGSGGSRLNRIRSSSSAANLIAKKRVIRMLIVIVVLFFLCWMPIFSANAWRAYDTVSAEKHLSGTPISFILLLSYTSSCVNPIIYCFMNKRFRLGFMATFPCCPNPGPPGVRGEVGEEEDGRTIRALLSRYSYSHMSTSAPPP
Experimental: (§1) The CCK-A and CCK-B antagonising activity of the compounds described herein was evaluated using the assays described in published European patent application no. 0514133. The method essentially involves determining the concentration of the test compound required to displace 50% of the specific ^125 I-CCK from rat pancreas (CCK-A) or guinea pig brain (CCK-B).

CCK-B = molecular target: T2, CCK-B (Cavia porcellus, UniProt H0VZC5); assay: displacement of specific 125I-CCK from guinea pig brain (CCK-B receptor binding)
T2 construct: guinea pig brain (CCK-B); from tissue; host or cells: guinea pig brain
T2 sequence (H0VZC5 1-426): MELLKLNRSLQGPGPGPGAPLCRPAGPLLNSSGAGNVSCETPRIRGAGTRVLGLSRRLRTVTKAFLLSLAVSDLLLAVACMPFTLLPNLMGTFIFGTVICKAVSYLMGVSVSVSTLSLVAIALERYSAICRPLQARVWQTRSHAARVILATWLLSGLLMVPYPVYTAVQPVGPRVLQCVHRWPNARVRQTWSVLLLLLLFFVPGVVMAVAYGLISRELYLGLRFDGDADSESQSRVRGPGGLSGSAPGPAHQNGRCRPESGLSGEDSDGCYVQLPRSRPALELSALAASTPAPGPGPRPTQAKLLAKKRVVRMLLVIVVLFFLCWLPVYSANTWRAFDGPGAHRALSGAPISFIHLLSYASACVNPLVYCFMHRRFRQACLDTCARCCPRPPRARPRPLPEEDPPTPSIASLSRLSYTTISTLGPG
Experimental: as §1, with “(CCK-B). The data in Table 1 were obtained for compounds of the Examples.” for “(CCK-B).”

[1] = read-out: CCK RECEPTOR BINDING RESULTS IC50 125I-CCK Pancreas
[2] = read-out: CCK RECEPTOR BINDING RESULTS IC50 125I-CCK Brain
[3] = CCK RECEPTOR BINDING RESULTS IC50 125I-CCK Brain

Row | IC50 (CCK-A; [1]) | IC50 (CCK-B; [2]) | SMILES | IC50 (CCK-A; CCK RECEPTOR BINDING RESULTS IC50 125I-CCK Pancreas) | IC50 (CCK-B; [3])
1 | 724 nM | 14.8 nM | CCCN1C(=O)C(NC(=O)Nc2cccc(C)c2)N=C(N2CCC3(CC2)OCCO3)c2ccccc21 (racemic) [Example 1, N-[3(R,S)-2,3-Dihydro-5-(1,4-dioxa-8-azaspiro[4,5]decan-8-yl)-2-oxo-1-propyl-1H-1,4-benzodiazepin-3-yl]N'-[3-methylphenyl]urea] | – | –
2 | 871 nM | 2.02 nM | CCCN1C(=O)C(NC(=O)Nc2cccc(C)c2)N=C(N2CCC(=O)CC2)c2ccccc21 (racemic) [Example 2, N-[3(R,S)-2,3-Dihydro-2-oxo-5-(4-oxopiperidin-1-yl)-1-propyl-1H-1,4-benzodiazepin-3-yl]N'-[3-methylphenyl] urea] | – | –
3 | 544 nM | 11.6 nM | CCCN1C(=O)C(NC(=O)Nc2cccc(C)c2)N=C(N2CCC(NCC(F)(F)F)CC2)c2ccccc21 (racemic) [Example 3, N-[3(R,S)-2,3-Dihydro-2-oxo-1-propyl-5-(4-[1,1,1-trifluoroethylamine]piperidin-1-yl)-1H-1,4-benzodiazepin-3-yl]N'-[3-methylphenyl]urea] | – | –
4 | 35 nM | 1.19 nM | CN1C(=O)C(NC(=O)Nc2ccc3c(c2)CCC3)N=C(N2CCC(C)(C)CC2)c2ccccc21 (racemic) [Example 4, N-[3(R,S)-2,3-Dihydro-5-(4,4-dimethylpiperidin-1-yl)-1-methyl-2-oxo-1H-1,4-benzodiazepin-3-yl]N'-[indan-5-yl]urea] | – | –
5 | 7.74 nM | 1.64 nM | Cc1cccc(NC(=O)NC2N=C(N3CCC(C)CC3)c3ccccc3N(C)C2=O)c1 (racemic) [Example 7, N-[3(R,S)-2,3-Dihydro-1-methyl-5-(4-methylpiperidin-1-yl)-2-oxo-1H-1,4-benzodiazepin-3-yl]N'-[3-methylphenyl]urea] | – | –
6 | 8.97 nM | 0.21 nM | Cc1cccc(NC(=O)NC2N=C(N3CCC(C)(C)CC3)c3ccccc3N(C)C2=O)c1 (racemic) [Example 9, N-[3(R,S)-2,3-Dihydro-5-(4,4-dimethylpiperidin-1-yl)-1-methyl-2-oxo-1H-1,4-benzodiazepin-3-yl]N'-[3-methylphenyl]urea] | – | –
7 | 25.2 nM | 4.22 nM | COC1CCN(C2=NC(NC(=O)Nc3cccc(C)c3)C(=O)N(C)c3ccccc32)CC1 (racemic) [Example 11, N-[3(R,S)-2,3-Dihydro-5-(4-methoxypiperidin-1-yl)-1-methyl-2-oxo-1H-1,4-benzodiazepin-3-yl]N'-[3-methylphenyl]urea] | – | –
8 | 27.2 nM | 0.2 nM | CCCN1C(=O)C(NC(=O)Nc2cccc(C)c2)N=C(N2CCC(C)CC2)c2ccccc21 (racemic) [Example 17, N-[3(R,S)-2,3-Dihydro-5-(4-methylpiperidin-1-yl)-2-oxo-1-propyl-1H-1,4-benzodiazepin-3-yl]N'-[3-methylphenyl]urea] | – | –
9 | 15 nM | 33 nM | Cc1cccc(NC(=O)NC2N=C(N3CCC(C)(C)CC3)c3ccccc3N(CC(F)(F)F)C2=O)c1 (racemic) [Example 27, N-[3(R,S)-2,3-Dihydro-5-(4,4,dimethylpiperidin-1-yl)-2-oxo-1-(2,2,2-trifluoroethyl)-1H-1,4-benzodiazepin-3-yl]N'-(3-methylphenyl) urea] | – | –
10 | – | – | Cc1cccc(NC(=O)NC2N=C(N3CC4CCC(CC4)C3)c3ccccc3N(C)C2=O)c1 (racemic) [Example 31, N-[3(R,S)-5-(3-Azabicyclo[3,2,2]nonan-3-yl)-2,3-dihydro-1-methyl-2-oxo-1H-1,4-benzodiazepin-3-yl]-N'-[3-methylphenyl]urea] | 20 nM | 0.53 nM
11 | 7.93 nM | 0.71 nM | Cc1cccc(NC(=O)NC2N=C(N3CC4CCC(C4)C3)c3ccccc3N(C)C2=O)c1 (racemic) [Example 38, N-[3(R,S)-5-(3-Azabicyclo[3,2,1]octan-3-yl)-2,3-dihydro-1-methyl-2-oxo-1H-1,4-benzodiazepin-3-yl]-N'-[3-methylphenyl]urea] | – | –
12 | 28.5 nM | 5.49 nM | Cc1cccc(NC(=O)NC2N=C(N3CC4CCC3CC4)c3ccccc3N(C)C2=O)c1 (racemic) [Example 51, N-[3(R,S)-5-(2-Azabicyclo[2,2,2]octan-2-yl)-2,3-dihydro-1-methyl-2-oxo-1H-1,4-benzodiazepin-3-yl]-N'-[3-methylphenyl]urea] | – | –
13 | 186 nM | 2.56 nM | CCCN1C(=O)C(NC(=O)Nc2cccc(C)c2)N=C(N(C)C2CCCCC2)c2ccccc21 (racemic) [Example 60, N-[3(R,S)-5-(N-Cyclohexyl-N-methylamino)-2,3-dihydro-2-oxo-1-propyl-1H-1,4-benzodiazepin-3-yl]-N'-[3-methylphenyl]urea] | – | –
14 | 304 nM | 1.36 nM | Cc1cccc(NC(=O)NC2N=C(N(C)C3CCCCC3)c3ccccc3N(C)C2=O)c1 (racemic) [Example 63, N-[3(R,S)-5-(N-Cyclohexyl-N-methylamino)-2,3-dihydro-1-methyl-2-oxo-1H-1,4-benzodiazepin-3-yl]-N'-[3-methylphenyl]urea] | – | –
15 | – | – | Cc1cccc(NC(=O)NC2N=C(N3CC4CCC(CC4)C3)c3ccccc3N(C)C2=O)c1 (single isomer, unassigned; (-)) [Example 33, (-)-N-[5-(3-Azabicyclo[3,2,2]nonan-3-yl)-2,3-dihydro-1-methyl-2-oxo-1H-1,4-benzodiazepin-3-yl]-N'-[3-methylphenyl]urea Hydrochloride] | – | 0.1 nM

Row | SMILES | IC50 (CCK-A; [1]) | IC50 (CCK-B; [2]) | IC50 (CCK-A; CCK RECEPTOR BINDING RESULTS IC50 125I-CCK Pancreas) | IC50 (CCK-B; [3])
16 | CN1C(=O)C(NC(=O)Nc2cccc(F)c2)N=C(N2CC3CCC(CC3)C2)c2ccccc21 (racemic) [Example 35, N-[3(R,S)-5-(3-Azabicyclo[3,2,2]nonan-3-yl)-2,3-dihydro-1-methyl-2-oxo-1H-1,4-benzodiazepin-3-yl]-N'-[3-fluorophenyl]urea] | 39.6 nM | – | – | 0.82 nM
17 | CN1C(=O)C(NC(=O)Nc2cccc(C(F)(F)F)c2)N=C(N2CC3CCC(CC3)C2)c2ccccc21 (racemic) [Example 42, N-[3(R,S)-5-(3-Azabicyclo[3,2,2]nonan-3-yl)-2,3-dihydro-1-methyl-2-oxo-1H-1,4-benzodiazepin-3-yl]-N'-[3-trifluoromethyl-phenyl]urea] | 80.4 nM | – | – | 1.79 nM
18 | CCCN1C(=O)C(NC(=O)Nc2cccc(C)c2)N=C(N2CC3CCC(C2)N3C)c2ccccc21 (racemic) [Example 43, N-[3(R,S)-2,3-Dihydro-5-(8-methyl-3,8-diazabicyclo[3,2,1]octan-3-yl)-2-oxo-1-propyl-1H-1,4-benzodiazepin-3-yl]-N'-[3-methylphenyl]urea] | > 3000 nM | – | – | 48.3 nM
19 | Cc1ccc(NC(=O)NC2N=C(N3CC4CCC(CC4)C3)c3ccccc3N(C)C2=O)cc1F (racemic) [Example 44, N-(3(R,S)-5-(3-Azabicyclo[3,2,2]nonan-3-yl)-2,3-dihydro-1-methyl-2-oxo 1H-1,4-benzodiazepin-3-yl]-N'-[3-fluoro-4-methylphenyl]urea] | 70.2 nM | – | – | 0.52 nM
20 | CN1C(=O)C(NC(=O)Nc2cccc(I)c2)N=C(N2CC3CCC(CC3)C2)c2ccccc21 (racemic) [Example 47, N-[3(R,S)-5-(3-Azabicyclo[3,2,2]nonan-3-yl)-2,3-dihydro-1-methyl-2-oxo-1H-1,4-benzodiazepin-3-yl]-N'-[3-iodophenyl]urea] | 26.6 nM | – | – | 1.01 nM
21 | CN1C(=O)C(NC(=O)Nc2ccccc2)N=C(N2CC3CCC(CC3)C2)c2ccccc21 (racemic) [Example 50, N-[3(R,S)-5-(3-Azabicyclo[3,2,2]nonan-3-yl)-2,3-dihydro-1-methyl-2-oxo-1H-1,4-benzodiazepin-3-yl]-N'-[phenyl]urea] | 10 nM | – | – | 3.9 nM
22 | Cc1cc(NC(=O)NC2N=C(N3CC4CCC(CC4)C3)c3ccccc3N(C)C2=O)ccc1F (racemic) [Example 52, N-[3(R,S)-5-(3-Azabicyclo[3,2,2]nonan-3-yl)-2,3-dihydro-1-methyl-2-oxo-1H-1,4-benzodiazepin-3-yl)-N'-[4-fluoro-3-methylphenyl]urea] | 18.5 nM | – | – | 0.25 nM
